According to PMC8148468, “Shikimic acid protects skin cells from UV-induced senescence through activation of the NAD+-dependent deacetylase SIRT1” (Aging (Albany NY), 2021):

Columns and labels:
Type in all cases: cell-based, human
[1] = test system: H4K16ac (the target of SIRT1 and SIRT2); experiment: Sirtuin activity assay in HDF: H4K16ac levels (Western blot); conditions: HDF treated 24h;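 further: screen looked for decreased acetylation as a sign of sirtuin activation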
Experimental: Figure 1 (A) Schematic representation of the compound testing for sirtuin activity evaluation in HDF. Cells were treated with or without the compounds for 24h and harvested for analysis. […] (C) Western Blot analysis and (D) quantification of H4K16ac and H3K9ac levels in cells treated with Resveratrol or Shikimic acid at the indicated concentrations. H4K16 and H3K9 levels were normalized to H4 and H3 levels respectively. Student T-test, *p<0.05, **p<0.01, ***p<0.001.
HDFs were plated in 100x20 mm2 cell culture plates and after 24h, fresh cell culture medium containing the compounds was added. After 24h, cells were detached with cell scrapers, harvested, and processed for qPCR or western blot.
Protein levels were analyzed as previously described. Cells were directly lysed in 1x Laemmli Buffer (Bio-Rad, USA), incubated at 95° C and centrifuged. Supernatant was subjected to SDS-polyacrylamide gel electrophoresis, and successive steps were performed as described. The list of antibodies used is included in Supplementary Table 2.

HDF cells = experiment: Cell cycle analysis, PI staining flow cytometry
Experimental: Figure 4 (A) SRB and Trypan blue cell viability assays performed in cells treated with or without Shikimic acid (5, 10, 25 and 50 mM) for 24h. (B) Apoptosis detection using the Annexin V-FITC/PI double staining followed by flow cytometry in non-irradiated and non-treated cells, irradiated and non-treated cells and irradiated cells treated with Shikimic acid (10, 25 and 50 mM). (C) Representation and statistical analysis of the percentage of apoptotic cells in each of the conditions analyzed. (D) Cell cycle analysis using PI staining followed by flow cytometry. (E) Relative p16^INK4a mRNA levels monitored by qPCR in the indicated conditions. Student T-test, *p<0.05. (F) Immunofluorescence of γH2AX in non-irradiated and non-treated cells, irradiated and non-treated cells and irradiated cells treated with Shikimic acid (10, 25 and 50 mM). (G) Principal component analysis (PCA) on Savitzky–Golay second derivatized spectra in the fingerprint region (1800–950 cm−1) for non-irradiated cells (No UVB), irradiated non-treated cells (UVB), irradiated cells treated with Shikimic acid 25 mM (UVB SA) and irradiated cells treated with Shikimic acid 25 mM plus EX-527 1 μM (UVB SA+EX-527). Student T-test, *p<0.05, **p<0.01, ***p<0.001. (H) Beta-sheet to alpha-helix ratio obtained by curve-fitting analysis of the amide I band (1700-1600 cm-1).
Fluorescence-activated cell sorting (FACS) analyses of the cell cycle and apoptosis were carried out using, respectively, a Propidium Iodide Flow Cytometry Kit (Abcam, UK), and an Annexin V-FITC Apoptosis Staining/Detection Kit (Abcam, UK), following the manufacturer’s instructions.
Senescence induction by UVB irradiation For the non-irradiation control conditions, HDF were plated at a density of 6×10^4 cells/plate in 6-well
HDF were plated at a density of 6×10^4 cells/plate in 6- plates. After 24h, culture medium was removed and well plates. After 24h, culture medium was removed replaced by fresh cell culture medium containing the and replaced with fresh cell culture medium containing compounds at different concentrations. […]

[2] = test system: HDF cells (misfolded proteins); experiment: FTIRM analysis, beta-sheet to alpha-helix ratio; conditions: UVB-irradiated cells, SA 25 mM -/+ EX-527 1 μM
Experimental: Figure 4 (A) SRB and Trypan blue cell viability assays performed in cells treated with or without Shikimic acid (5, 10, 25 and 50 mM) for 24h. (B) Apoptosis detection using the Annexin V-FITC/PI double staining followed by flow cytometry in non-irradiated and non-treated cells, irradiated and non-treated cells and irradiated cells treated with Shikimic acid (10, 25 and 50 mM). (C) Representation and statistical analysis of the percentage of apoptotic cells in each of the conditions analyzed. (D) Cell cycle analysis using PI staining followed by flow cytometry. (E) Relative p16^INK4a mRNA levels monitored by qPCR in the indicated conditions. Student T-test, *p<0.05. (F) Immunofluorescence of γH2AX in non-irradiated and non-treated cells, irradiated and non-treated cells and irradiated cells treated with Shikimic acid (10, 25 and 50 mM). […]
FTIRM measurements were performed at the MIRAS beamline of ALBA Synchrotron using the internal (Globar®) source. […] The structure content of the amide I peak (1710-1598 cm−1) was determined by band deconvolution using Gaussian band fitting profiles (Origin 7.0 software). The position and number of peaks, which were assigned to specific types of secondary structures, were determined using the second derivative of the spectra.

SMILES: O=C(O)C1=C[C@@H](O)[C@@H](O)[C@H](O)C1 [Shikimic acid]
- effect on H4K16ac levels [1]: induced a similar effect on both targets
- frequency of polyploidies (HDF cells; UVB irradiation): did not alter the accumulation of DNA damage or the frequency of polyploidies
- cells in S-phase (HDF cells; UVB-irradiated HDF): progressive increase in the number of cells in S-phase
- cell cycle (HDF cells; absence of UVB irradiation): did not alter the cell cycle
- β-sheet/α-helix ratio (misfolded proteins) [2]: inhibited these levels well below the ratio observed in control cells
